Measurements from PubChem BioAssay (NCI).
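Cells were grown in 96-well plates and exposed to each compound for 48 hours at five concentrations; endpoints were interpolated linearly between bracketing concentrations, or set to the highest concentration if not reached. The concentration for full growth arrest is given as TGI.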

Tests used:
Test in all cases: growth of human tumour cells (NCI), 48 h
[1] = tested on: HOP-62 NSCLC
[2] = tested on: CCRF-CEM leukemia
[3] = tested on: HCT-116 colon
[4] = tested on: CAKI-1 renal
[5] = tested on: OVCAR-5 ovarian
[6] = tested on: SK-MEL-28 melanoma
[7] = tested on: SF-539 CNS
[8] = tested on: DMS 114 small cell lung
[9] = tested on: KM20L2 colon
[10] = tested on: OVCAR-4 ovarian
[11] = tested on: SR leukemia
[12] = tested on: TK-10 renal
[13] = tested on: COLO 205 colon
[14] = tested on: NCI-H460 lung
[15] = tested on: MOLT-4 leukemia
[16] = tested on: LOX IMVI melanoma
[17] = tested on: SK-MEL-2 melanoma
[18] = tested on: OVCAR-3 ovarian
[19] = tested on: LXFL 529 NSCLC
[20] = tested on: IGROV1 ovarian
[21] = tested on: HCT-15 colon
[22] = tested on: DLD-1 colon
[23] = tested on: SNB-19 CNS
[24] = tested on: SW-620 colon
[25] = tested on: SK-MEL-5 melanoma
[26] = tested on: SK-OV-3 ovarian
[27] = tested on: SNB-75 CNS
[28] = tested on: NCI-H23 lung
[29] = tested on: DMS 273 small cell lung
[30] = tested on: HL-60(TB) leukemia
[31] = tested on: A549 NSCLC
[32] = tested on: RXF 393 renal
[33] = tested on: M14 melanoma
[34] = tested on: UACC-62 melanoma
[35] = tested on: UACC-257 melanoma
[36] = tested on: OVCAR-8 ovarian
[37] = tested on: NCI-H226 lung
[38] = tested on: 786-0 renal
[39] = tested on: HOP-18 NSCLC
[40] = tested on: HT29 colon
[41] = tested on: HOP-92 NSCLC
[42] = tested on: EKVX NSCLC
[43] = tested on: ACHN renal
[44] = tested on: UO-31 renal
[45] = tested on: SN12C renal
[46] = tested on: RPMI-8226 leukemia
[47] = tested on: K-562 leukemia
[48] = tested on: U251 CNS
[49] = tested on: M19-MEL melanoma
[50] = tested on: SF-268 CNS
[51] = tested on: XF 498 CNS
[52] = tested on: SF-295 CNS
[53] = tested on: NCI-H522 lung
[54] = tested on: KM12 colon
[55] = tested on: SNB-78 CNS
[56] = tested on: HCC-2998 colon
[57] = tested on: MALME-3M melanoma

CC1=CC2CCC1(C)C/C2=C(/C)OC=O (stereo unspecified)
TGI [1]: > 100 µM
TGI [2]: > 100 µM
TGI [3]: > 100 µM
TGI [4]: > 100 µM
TGI [5]: > 100 µM
TGI [6]: > 100 µM
TGI [7]: > 100 µM
TGI [8]: > 100 µM
TGI [9]: > 100 µM
TGI [10]: > 100 µM
TGI [11]: > 100 µM
TGI [12]: > 100 µM
TGI [13]: > 100 µM
TGI [14]: > 100 µM
TGI [15]: > 100 µM
TGI [16]: > 100 µM
TGI [17]: > 100 µM
TGI [18]: > 100 µM
TGI [19]: > 100 µM
TGI [20]: > 100 µM
TGI [21]: > 100 µM
TGI [22]: > 100 µM
TGI [23]: > 100 µM
TGI [24]: > 100 µM
TGI [25]: > 100 µM
TGI [26]: > 100 µM
TGI [27]: > 100 µM
TGI [28]: > 100 µM
TGI [29]: > 100 µM
TGI [30]: > 100 µM
TGI [31]: > 100 µM
TGI [32]: > 100 µM
TGI [33]: > 100 µM
TGI [34]: > 100 µM
TGI [35]: > 100 µM
TGI [36]: > 100 µM
TGI [37]: > 100 µM
TGI [38]: > 100 µM
TGI [39]: > 100 µM
TGI [40]: > 100 µM
TGI [41]: > 100 µM
TGI [42]: > 100 µM
TGI [43]: > 100 µM
TGI [44]: > 100 µM
TGI [45]: > 100 µM
TGI [46]: > 100 µM
TGI [47]: > 100 µM
TGI [48]: > 100 µM
TGI [49]: > 100 µM
TGI [50]: > 100 µM
TGI [51]: > 100 µM
TGI [52]: > 100 µM
TGI [53]: > 100 µM
TGI [54]: > 100 µM
TGI [55]: > 100 µM

Cn1cc(NC(=O)[C@H]2CCC(N)=N2)cc1C(=O)NCCC(=N)N
TGI [1]: > 100 µM
TGI [56]: > 100 µM
TGI [2]: > 100 µM
TGI [3]: > 100 µM
TGI [6]: > 100 µM
TGI [7]: > 100 µM
TGI [8]: > 100 µM
TGI [9]: > 100 µM
TGI [11]: > 100 µM
TGI [12]: > 100 µM
TGI [13]: > 100 µM
TGI [14]: > 100 µM
TGI [15]: > 100 µM
TGI [16]: > 100 µM
TGI [17]: > 100 µM
TGI [18]: > 100 µM
TGI [19]: > 100 µM
TGI [20]: > 100 µM
TGI [22]: > 100 µM
TGI [23]: > 100 µM
TGI [24]: > 100 µM
TGI [26]: > 100 µM
TGI [27]: > 100 µM
TGI [28]: > 100 µM
TGI [29]: > 100 µM
TGI [30]: > 100 µM
TGI [31]: > 100 µM
TGI [32]: > 100 µM
TGI [33]: > 100 µM
TGI [57]: > 100 µM
TGI [34]: > 100 µM
TGI [35]: > 100 µM
TGI [36]: > 100 µM
TGI [37]: > 100 µM
TGI [38]: > 100 µM
TGI [39]: > 100 µM
TGI [40]: > 100 µM
TGI [41]: > 100 µM
TGI [42]: > 100 µM
TGI [43]: > 100 µM
TGI [44]: > 100 µM
TGI [45]: > 100 µM
TGI [46]: > 100 µM
TGI [47]: > 100 µM
TGI [48]: > 100 µM
TGI [50]: > 100 µM
TGI [51]: > 100 µM
TGI [52]: > 100 µM
TGI [53]: > 100 µM
TGI [54]: > 100 µM
TGI [55]: > 100 µM

FC(F)(F)C1(Cl)C(Cl)(c2ccccc2)C1(Cl)c1ccccc1 (stereo unspecified)
TGI [1]: 30 µM
TGI [56]: 31.1 µM
TGI [2]: 55 µM
TGI [3]: 24.8 µM
TGI [4]: 25.6 µM
TGI [5]: 30 µM
TGI [6]: 28.2 µM
TGI [7]: 30.4 µM
TGI [8]: 29.2 µM
TGI [9]: 26.9 µM
TGI [10]: 27.3 µM
TGI [11]: 25.8 µM
TGI [12]: 32.8 µM
TGI [13]: 33.4 µM
TGI [14]: 30.5 µM
TGI [15]: 35.4 µM
TGI [16]: 26.8 µM
TGI [17]: 29.1 µM
TGI [18]: 28.1 µM
TGI [19]: 29.9 µM
TGI [20]: 26 µM
TGI [21]: 26.8 µM
TGI [22]: 29.1 µM
TGI [23]: 32.5 µM
TGI [24]: 29.1 µM
TGI [25]: 26.9 µM
TGI [26]: 54.7 µM
TGI [27]: 29.9 µM
TGI [28]: 27.5 µM
TGI [29]: 28.2 µM
TGI [30]: > 100 µM
TGI [31]: 28 µM
TGI [32]: 27.7 µM
TGI [33]: 30.2 µM
TGI [34]: 29.7 µM
TGI [35]: 28.1 µM
TGI [36]: 32.2 µM
TGI [37]: 27.4 µM
TGI [38]: 29.5 µM
TGI [39]: 23.1 µM
TGI [40]: 28.2 µM
TGI [41]: 24.8 µM
TGI [42]: 30.1 µM
TGI [43]: 29.5 µM
TGI [44]: 28.1 µM
TGI [45]: 28.6 µM
TGI [46]: > 100 µM
TGI [47]: > 100 µM
TGI [48]: 28.3 µM
TGI [49]: 29 µM
TGI [50]: 31.7 µM
TGI [51]: 29.3 µM
TGI [52]: 29.4 µM
TGI [54]: 29 µM
TGI [55]: 33.2 µM
